From patent US20230165873A1, “Methods of Use for Single Molecule Compounds Providing Multi-Target Inhibition to Treat Covid 19” (priority 2020, published 2023) come the findings set out here.

For one assay, the target named is PI3K alpha (Homo sapiens, UniProt P42336). The assay can be described thus: PI3K alpha in vitro inhibition. It is filed as biochemical. The procedure:
(§1) The kinase or bromodomain inhibitory activity of a compound of the invention can be determined by routine methods known to the skilled artisan without undue experimentation, or by procuring relevant analysis by a commercial vendor offering such services. […] In vivo, PI3K inhibition can be determined from target tissue biopsies by standard tissue processing in which cells are disrupted and Western Blot analysis is performed to determine the presence or absence of pAKT (substrate of PI3K) relative to a control sample. PI3K inhibition assays and BTK inhibition assays are known in the art and can be procured commercially through vendors such as Reaction Biology (Malvern, PA). The activity of a compound of the invention as an inhibitor of a bromodomain-containing protein, such as a BET protein, including BRD2, BRD3, BRD4, and/or BRDT, or an isoform or mutant thereof, may be determined in vitro, in vivo, or in a cell line. In vitro assays include assays that determine inhibition of bromodomain-containing proteins. Alternatively, inhibitor binding may be determined by running a competition experiment where a provided compound is incubated with a bromodomain-containing protein, such as a BET protein bound to known ligands, labeled or unlabeled. In vitro bromodomain inhibition assays can be performed using Alpha Screen Technology (Perkin Elmer Life and Analytical Sciences, Shelton, CT). In vivo bromodomain inhibition can be determined indirectly by evaluating the amount of a protein whose gene transcription is influenced or controlled by the bromodomain protein, for example, MYCN protein transcription is controlled by BRD4 (J.E. Delmore et al., Cell 2011, 146, 904-917; A. Puissant, Cancer Discov. 2013, 3, 308-323).

Another assay concerns the target BTK C481S (Homo sapiens, UniProt Q06187, C481S). In words: BTK C481S in vitro inhibition. It is filed as biochemical. The protocol:
as §1
(§2) IC50 inhibition data against the indicated targets were determined for compounds of the invention using standard in vitro assays (Tables 8 and 9).

Another assay concerns the target PI3K beta (Homo sapiens, UniProt P42338). In words: PI3K beta in vitro inhibition. It is filed as biochemical. The procedure: as §1
For another assay, the target named is BTK (Homo sapiens, UniProt Q06187). In words: BTK in vitro inhibition. The class given is biochemical. The protocol:
as §1, §2

A further assay addresses T1, BRD4-2 (Homo sapiens, UniProt O60885).
T1 construct: BRD4-2
The assay can be described thus: BRD4-2 in vitro inhibition. The class given is binding. The procedure: as §1

Another assay addresses PI3K gamma (Homo sapiens, UniProt P48736). In words: PI3K gamma in vitro inhibition. Particulars: read-out: IC50 inhibition PI3K gamma. The class given is biochemical. The protocol: as §1, §2
The target of another assay is T2, BRD4-1 (Homo sapiens, UniProt O60885).
T2 construct: BRD4-1
In words: BRD4-1 in vitro inhibition. It is filed as binding. The protocol:
as §1

Where only a bound is given, the exact number is not on record here.

Chain of PI3K gamma (P48736 whole entry): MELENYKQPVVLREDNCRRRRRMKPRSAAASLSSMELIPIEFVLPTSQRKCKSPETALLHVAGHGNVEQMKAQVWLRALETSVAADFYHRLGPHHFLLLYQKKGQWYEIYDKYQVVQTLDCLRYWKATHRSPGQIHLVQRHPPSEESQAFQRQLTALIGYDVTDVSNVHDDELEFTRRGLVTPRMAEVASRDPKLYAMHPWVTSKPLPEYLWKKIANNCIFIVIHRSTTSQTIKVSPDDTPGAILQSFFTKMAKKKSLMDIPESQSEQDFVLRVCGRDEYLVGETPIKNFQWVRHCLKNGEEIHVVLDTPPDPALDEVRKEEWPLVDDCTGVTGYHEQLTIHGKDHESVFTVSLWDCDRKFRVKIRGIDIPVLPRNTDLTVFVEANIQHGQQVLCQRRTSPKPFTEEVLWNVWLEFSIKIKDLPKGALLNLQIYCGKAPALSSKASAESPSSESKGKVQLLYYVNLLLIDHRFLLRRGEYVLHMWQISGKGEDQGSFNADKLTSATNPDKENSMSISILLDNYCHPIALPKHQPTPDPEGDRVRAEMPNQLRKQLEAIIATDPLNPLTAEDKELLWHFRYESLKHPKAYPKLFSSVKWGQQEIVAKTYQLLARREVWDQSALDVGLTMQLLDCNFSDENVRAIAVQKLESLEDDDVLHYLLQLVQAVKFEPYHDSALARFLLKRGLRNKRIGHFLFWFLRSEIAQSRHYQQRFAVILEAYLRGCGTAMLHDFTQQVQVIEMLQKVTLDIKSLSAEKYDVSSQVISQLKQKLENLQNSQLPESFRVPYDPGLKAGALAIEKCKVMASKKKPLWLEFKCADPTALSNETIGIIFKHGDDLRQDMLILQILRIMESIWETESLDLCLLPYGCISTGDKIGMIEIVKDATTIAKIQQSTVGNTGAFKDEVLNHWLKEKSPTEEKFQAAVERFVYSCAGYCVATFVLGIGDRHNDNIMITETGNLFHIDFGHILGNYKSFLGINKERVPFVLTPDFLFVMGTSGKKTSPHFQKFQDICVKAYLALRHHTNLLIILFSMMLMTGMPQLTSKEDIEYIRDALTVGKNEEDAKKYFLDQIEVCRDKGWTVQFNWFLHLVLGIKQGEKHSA
Chain of BTK (Q06187 whole entry): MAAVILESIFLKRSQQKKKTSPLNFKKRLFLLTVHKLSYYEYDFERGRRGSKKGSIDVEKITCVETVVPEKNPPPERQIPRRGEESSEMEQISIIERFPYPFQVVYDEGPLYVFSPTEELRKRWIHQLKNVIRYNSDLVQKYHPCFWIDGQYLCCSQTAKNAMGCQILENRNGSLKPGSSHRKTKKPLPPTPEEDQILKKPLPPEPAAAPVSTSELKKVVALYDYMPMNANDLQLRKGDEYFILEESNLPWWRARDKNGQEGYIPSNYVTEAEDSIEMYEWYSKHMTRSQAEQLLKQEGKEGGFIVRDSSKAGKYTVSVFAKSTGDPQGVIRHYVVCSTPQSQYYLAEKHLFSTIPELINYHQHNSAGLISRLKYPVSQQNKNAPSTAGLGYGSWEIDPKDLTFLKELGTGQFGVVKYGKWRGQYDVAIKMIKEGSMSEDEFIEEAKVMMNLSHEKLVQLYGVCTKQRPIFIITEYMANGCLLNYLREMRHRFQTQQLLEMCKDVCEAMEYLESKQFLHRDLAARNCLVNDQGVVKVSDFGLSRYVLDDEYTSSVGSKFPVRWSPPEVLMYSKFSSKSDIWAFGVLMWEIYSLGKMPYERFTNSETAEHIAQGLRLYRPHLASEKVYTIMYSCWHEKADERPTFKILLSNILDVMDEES
Chain of PI3K alpha (P42336 whole entry): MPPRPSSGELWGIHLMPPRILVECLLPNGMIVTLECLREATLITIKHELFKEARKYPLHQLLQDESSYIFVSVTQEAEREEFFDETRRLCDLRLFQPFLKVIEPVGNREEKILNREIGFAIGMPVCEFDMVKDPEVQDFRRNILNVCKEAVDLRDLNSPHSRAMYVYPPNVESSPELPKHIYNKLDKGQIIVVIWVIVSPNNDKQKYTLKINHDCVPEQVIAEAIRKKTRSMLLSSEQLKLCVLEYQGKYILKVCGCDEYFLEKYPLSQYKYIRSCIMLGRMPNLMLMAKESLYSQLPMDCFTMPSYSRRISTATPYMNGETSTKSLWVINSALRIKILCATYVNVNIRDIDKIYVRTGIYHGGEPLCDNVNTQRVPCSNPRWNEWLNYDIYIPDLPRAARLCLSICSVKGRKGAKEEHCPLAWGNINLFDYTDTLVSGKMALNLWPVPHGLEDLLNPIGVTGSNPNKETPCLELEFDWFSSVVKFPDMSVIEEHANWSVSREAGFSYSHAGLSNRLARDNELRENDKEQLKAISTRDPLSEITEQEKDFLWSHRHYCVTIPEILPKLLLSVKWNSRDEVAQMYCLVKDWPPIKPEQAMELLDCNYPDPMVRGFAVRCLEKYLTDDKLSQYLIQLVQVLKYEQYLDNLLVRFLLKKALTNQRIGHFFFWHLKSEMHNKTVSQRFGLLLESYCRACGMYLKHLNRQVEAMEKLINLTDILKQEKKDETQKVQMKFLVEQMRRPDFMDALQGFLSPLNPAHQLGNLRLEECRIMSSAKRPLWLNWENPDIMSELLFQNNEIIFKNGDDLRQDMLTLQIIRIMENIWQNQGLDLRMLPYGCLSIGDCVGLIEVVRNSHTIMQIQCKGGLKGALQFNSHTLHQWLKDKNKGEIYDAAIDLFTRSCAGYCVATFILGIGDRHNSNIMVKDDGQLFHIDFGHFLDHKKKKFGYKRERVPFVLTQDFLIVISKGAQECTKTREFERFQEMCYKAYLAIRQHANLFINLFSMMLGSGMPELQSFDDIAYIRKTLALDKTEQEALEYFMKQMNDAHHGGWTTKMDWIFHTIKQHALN
Chain of PI3K alpha (P27986 whole entry partner): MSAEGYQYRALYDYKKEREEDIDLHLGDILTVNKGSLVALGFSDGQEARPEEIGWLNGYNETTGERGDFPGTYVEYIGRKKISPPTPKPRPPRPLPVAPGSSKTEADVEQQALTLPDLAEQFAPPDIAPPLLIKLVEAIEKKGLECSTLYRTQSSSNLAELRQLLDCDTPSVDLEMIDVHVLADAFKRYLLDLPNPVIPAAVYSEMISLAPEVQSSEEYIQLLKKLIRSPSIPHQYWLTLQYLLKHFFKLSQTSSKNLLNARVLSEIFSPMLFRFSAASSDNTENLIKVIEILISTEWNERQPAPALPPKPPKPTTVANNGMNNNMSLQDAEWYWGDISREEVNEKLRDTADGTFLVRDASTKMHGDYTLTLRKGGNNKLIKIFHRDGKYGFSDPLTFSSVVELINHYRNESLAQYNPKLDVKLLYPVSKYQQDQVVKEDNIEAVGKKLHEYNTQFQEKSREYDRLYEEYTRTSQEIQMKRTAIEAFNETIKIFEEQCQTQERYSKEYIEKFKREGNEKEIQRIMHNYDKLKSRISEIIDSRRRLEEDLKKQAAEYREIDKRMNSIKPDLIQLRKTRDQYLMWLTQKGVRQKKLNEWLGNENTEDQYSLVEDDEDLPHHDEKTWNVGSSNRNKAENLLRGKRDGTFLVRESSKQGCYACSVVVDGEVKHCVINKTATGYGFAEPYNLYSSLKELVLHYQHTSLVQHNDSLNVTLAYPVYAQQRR
Chain of BTK C481S (Q06187 whole entry C481S): as the sequence (Q06187 whole entry) above, with C481S counted along it
Chain of PI3K beta (P42338 whole entry): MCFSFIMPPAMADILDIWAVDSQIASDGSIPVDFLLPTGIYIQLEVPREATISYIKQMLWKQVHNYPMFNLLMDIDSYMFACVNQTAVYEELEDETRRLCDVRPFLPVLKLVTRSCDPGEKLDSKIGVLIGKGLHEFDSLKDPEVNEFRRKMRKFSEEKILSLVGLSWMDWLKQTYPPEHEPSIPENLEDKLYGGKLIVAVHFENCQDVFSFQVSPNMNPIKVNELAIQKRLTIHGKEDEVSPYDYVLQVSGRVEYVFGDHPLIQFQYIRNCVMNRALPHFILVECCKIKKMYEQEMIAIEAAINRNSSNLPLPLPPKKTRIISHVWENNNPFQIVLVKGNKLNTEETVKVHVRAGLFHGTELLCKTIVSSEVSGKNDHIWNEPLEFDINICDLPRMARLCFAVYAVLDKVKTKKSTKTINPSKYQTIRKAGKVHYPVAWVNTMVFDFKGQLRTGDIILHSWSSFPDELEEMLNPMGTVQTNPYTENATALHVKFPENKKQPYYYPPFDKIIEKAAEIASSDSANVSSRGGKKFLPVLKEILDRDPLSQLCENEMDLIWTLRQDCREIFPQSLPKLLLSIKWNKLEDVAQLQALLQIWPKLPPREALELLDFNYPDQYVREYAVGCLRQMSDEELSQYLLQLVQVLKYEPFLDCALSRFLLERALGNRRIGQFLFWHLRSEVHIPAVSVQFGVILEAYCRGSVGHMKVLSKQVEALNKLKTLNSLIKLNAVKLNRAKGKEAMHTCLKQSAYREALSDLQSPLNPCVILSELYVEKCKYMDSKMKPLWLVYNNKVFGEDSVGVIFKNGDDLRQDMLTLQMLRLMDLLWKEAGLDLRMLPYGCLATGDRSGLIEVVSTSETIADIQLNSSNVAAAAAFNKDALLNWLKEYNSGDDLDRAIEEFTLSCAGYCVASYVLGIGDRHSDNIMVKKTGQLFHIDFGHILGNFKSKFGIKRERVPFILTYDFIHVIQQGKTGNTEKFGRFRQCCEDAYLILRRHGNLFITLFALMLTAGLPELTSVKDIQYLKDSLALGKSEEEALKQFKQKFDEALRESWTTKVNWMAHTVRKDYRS
Chain of PI3K beta (P27986 whole entry partner): as the sequence (P27986 whole entry partner) above

The term IC50 denotes the concentration that gives 50% inhibition. For the compound `N#C/C(=C\C1CC1)C(=O)Nc1cccc(-c2csc3c(=O)cc(N4CCOCC4)oc23)c1` [Compound 35], the concentration for half-maximal inhibition (IC50) at PI3K alpha is less than 500 nM; against BTK C481S it was 10000 to 45000 nM; at PI3K beta, less than 500 nM; at BTK it was 10000 to 45000 nM; against BRD4-2, 500 to 1000 nM.

Consider `C=CC(=O)Nc1cc(-c2csc3c(=O)cc(N4CCOCC4)oc23)ccc1OC` [Compound 36], for which the 50% inhibitory concentration (IC50) at PI3K alpha was less than 500 nM; at BTK C481S, 1000 to 10000 nM; at PI3K beta it was less than 500 nM; at PI3K gamma, 1000 to 10000 nM; at BRD4-1, less than 500 nM; at BTK it was 1000 to 10000 nM. Besides, the IC50 against BRD4-2 lay in the range of 500 to 1000 nM.

Regarding `C/C=C(/C)C(=O)N1CCOc2ccc(-c3csc4c(=O)cc(N5CCOCC5)oc34)cc21` [Compound 37], the IC50 on PI3K alpha was less than 500 nM; at BTK C481S it was greater than 45000 nM; against PI3K beta it was less than 500 nM; at PI3K gamma it was 500 to 1000 nM; against BRD4-1, 500 to 1000 nM; at BTK, 10000 to 45000 nM. The same compound registered a half-inhibitory concentration (IC50) on BRD4-2 of 500 to 1000 nM.

As to `C/C=C(\C)C(=O)N1CCOc2ccc(-c3csc4c(=O)cc(N5CCOCC5)oc34)cc21` [Compound 38], the IC50 against PI3K alpha is less than 500 nM; at BTK C481S it was greater than 45000 nM; on PI3K beta it was less than 500 nM; on PI3K gamma, 1000 to 10000 nM; against BRD4-1, less than 500 nM; against BTK, greater than 45000 nM. Moreover, on BRD4-2, the concentration for half-maximal inhibition (IC50) fell in the range of 500 to 1000 nM.

With `C/C=C/C(=O)N1CCOc2ccc(-c3csc4c(=O)cc(N5CCOCC5)oc34)cc21` [Compound 39], the IC50 on PI3K alpha is less than 500 nM; on BTK C481S, greater than 45000 nM; against PI3K beta, less than 500 nM; on PI3K gamma, 1000 to 10000 nM; at BRD4-1, less than 500 nM; at BTK, 10000 to 45000 nM. The IC50 at BRD4-2 is less than 500 nM.

Turning to `O=C(C1=CCCC1)N1CCOc2ccc(-c3csc4c(=O)cc(N5CCOCC5)oc34)cc21` [Compound 40], the 50% inhibitory concentration (IC50) against PI3K alpha was less than 500 nM; at BTK C481S, 10000 to 45000 nM; on PI3K beta it was less than 500 nM; on PI3K gamma, 1000 to 10000 nM; against BRD4-1 it was less than 500 nM; at BTK, greater than 45000 nM. On BRD4-2, this compound registered a concentration for half-maximal inhibition (IC50) of less than 500 nM.

With `O=C(C1=CCCC1)N1CCOc2ccc(-c3csc4c(=O)cc(N5CCOCC5)oc34)cc21` [Compound 41], the concentration for half-maximal inhibition (IC50) against BTK was 1000 to 10000 nM.

As for `C=CS(=O)(=O)N1CCCc2ccc(-c3csc4c(=O)cc(N5CCOCC5)oc34)cc21` [Compound 44], the 50% inhibitory concentration (IC50) was less than 500 nM at PI3K alpha; 10000 to 45000 nM against BTK C481S; less than 500 nM on PI3K beta; less than 500 nM on PI3K gamma; less than 500 nM on BRD4-1; less than 500 nM against BTK. In addition, at BRD4-2, the IC50 is less than 500 nM.

For the compound `C=CS(=O)(=O)Nc1cc(-c2csc3c(=O)cc(N4CCOCC4)oc23)ccc1OC` [Compound 45], the half-maximal inhibitory concentration (IC50) is less than 500 nM at PI3K alpha; greater than 45000 nM at BTK C481S; less than 500 nM against PI3K beta; less than 500 nM at PI3K gamma; less than 500 nM against BRD4-1; less than 500 nM at BTK. Further, the IC50 at BRD4-2 was less than 500 nM.

For the compound `C=CS(=O)(=O)Nc1cccc(-c2csc3c(=O)cc(N4CCOCC4)oc23)c1` [Compound 46], the IC50 was less than 500 nM on PI3K alpha; greater than 45000 nM on BTK C481S; less than 500 nM against PI3K beta; less than 500 nM on PI3K gamma; less than 500 nM on BRD4-1; less than 500 nM against BTK. Also, on BRD4-2, the IC50 is less than 500 nM.

On to `C=CS(=O)(=O)N(C)c1cccc(-c2csc3c(=O)cc(N4CCOCC4)oc23)c1` [Compound 47], for which the half-inhibitory concentration (IC50) at PI3K alpha was less than 500 nM; on BTK C481S, greater than 45000 nM; against PI3K beta, less than 500 nM; on PI3K gamma it was less than 500 nM; on BRD4-1, less than 500 nM; on BTK, less than 500 nM. On BRD4-2, this compound had an IC50 of 500 to 1000 nM.

For `C=CS(=O)(=O)N(C)c1cc(-c2csc3c(=O)cc(N4CCOCC4)oc23)ccc1OC` [Compound 48], the IC50 at PI3K alpha is less than 500 nM; on BTK C481S, greater than 45000 nM; at PI3K beta, less than 500 nM; at PI3K gamma, less than 500 nM; against BRD4-1 it was less than 500 nM; against BTK it was less than 500 nM. Besides, on BRD4-2, the IC50 is less than 500 nM.
